Reference: publication PMC13439108, “An antibody–drug conjugate active against antibiotic-resistant Neisseria gonorrhoeae” (Proceedings of the National Academy of Sciences of the …, 2026)
Values after ≈ are worked out from the molar mass of the structure shown. Where a SMILES comes first, the peptide text is derived from it. [ ]: non-standard residue; d: D form. The star is where a group is joined. d(aIle) = CC[C@H](C)[C@@H](N)C(=O)O; dDab = NCC[C@@H](N)C(=O)O; Octanoyl = CCCCCCCC(=O)*; Dab = NCC[C@H](N)C(=O)O; AEEA = NCCOCCOCC(=O)O

How the values were obtained:
[1] = test system: N. gonorrhoeae G97687 (MDR strain); assay: Time-to-kill assay; assay type: cell-based, Neisseria gonorrhoeae; conditions: G97687, peptide 50 μg mL^−1, GW medium; n = 3
Protocol: (§1) Fig. 4. […] (C) Time-to-kill curve analysis with ADCs protocol. N. gonorrhoeae were grown for 24 h prior to harvesting supernatant with or without IgAP, wild-type, and ΔigAP, respectively. Supernatant was dialyzed into fresh media prior to inoculating with respective N. gonorrhoeae strains. After 3 h growth, ADCs or peptides were added, and CFU/mL was calculated every 30 min for 4 h. […] All data shown are the mean ± SD of CFU/ml (n = 3).
(§2) 37°C, in 5% CO2 then 10 μl aliquots plated onto GCB agar. The MIC was defined as the lowest concentration of an antimicrobial that prevented bacterial growth.
(§3) Determination of N. gonorrhoeae resistance to Oct-TriA1
(§4) Single colonies of N. gonorrhoeae FA1090 were inoculated into 2 mL of FB media supplemented with 1% Vitox (Oxoid) and grown overnight. After 24 hours, 240 µl of a 1/ 5,000 dilution of FA1090 in 2x FB was added to a 48-well plate containing 2-fold dilutions of either Oct-TriA1-c (final concentration, 12.5 µg/ml to 0.2 µg/ml) or ciprofloxacin (final concentration, 16.4 to 0.001 µg/ml) in a total volume of 480
(§5) µl. Plates were incubated at 37 °C, 5% CO2 with shaking (180 rpm). After 24 hours, ODA600 of each well […]
(§6) Peptide concentrations for ADCs were calculated from the antibody concentration, the drug-to-antibody ratio (DAR), and the peptide molecular weight using the following formula: […]

N. gonorrhoeae FA1090 = assay: Time-to-kill assay; assay type: cell-based, Neisseria gonorrhoeae; conditions: FA1090, 50 μg mL^−1 of the AMP, GW medium; n = 3
Protocol: as §1, §2, §3, §4, §5, §6

N. gonorrhoeae WHO G = conditions: microdilution in FB, ~5 × 10^4 CFU, 24 hr, 37°C, 5% CO2
Protocol: (§7) columns (ThermoFisher scientific). Activated mAb was added to 0.9 mg of Oct-TriA1 analogues (synthesised by ISCA Biochemicals, UK) and incubated at room temperature for 60 min. ADCs were dialysed using slide-A-Lyzer cassette (20K MWCO, ThermoFisher scientific) into PBS overnight at 4 °C […]
(§8) MALDI-TOF MS analysis for determination of intact mass mAbs or ADCs with a concentration of 1 mg/mL were acidified with 1% trifluoroacetic acid and mixed with Super DHB matrix, 1 μl was spotted onto an MTP Anchorchip 600/384. For every mAb, three sample spots were prepared from the same solution using three protocols advised by the manufacturer. MALDI-TOF measurements were performed on a Microflex LRF mass spectrometer, equipped with a 60Hz nitrogen laser at 337nm. Number of peptides conjugated was calculated using the MALDI-TOF molecular weights (MW) [MW = M+] of each ADC, the unconjugated antibody (mAb), and the molecular weights of Oct-TriA1 analogues using the following equation.
(§9) Number of peptides = MW ADC − MW mAb […]
(§10) Determination of Oct-TriA1 Minimum Inhibitory Concentration (MIC)
(§11) N. gonorrhoeae was resuspended in PBS to an ODA600 1.0, and ̴5 × 10^4 CFU added to wells of a microdilution plate containing dilutions of antimicrobials in FB. Plates were incubated for 24 hr at […]
(§12) 37°C, in 5% CO2 then 10 μl aliquots plated onto GCB agar. The MIC was defined as the lowest concentration of an antimicrobial that prevented bacterial growth. […]
(§13) Peptide concentration in ADC preparations
(§14) Peptide concentrations for ADCs were calculated from the antibody concentration, the drug-to-antibody ratio (DAR), and the peptide molecular weight using the following formula:
(§15) Conc. peptide (µg/mL) = Conc. ADC (µg/mL) × DAR x MWpeptide (Da) […]
(§16) Where Conc. ADC is the ADC/ mAb concentration, MWADC is the mAb molecular weight (150 kDa), MWpeptide is the peptide molecular weight and DAR is the average number of peptides per conjugate.
(§17) This formula was used to convert ADC concentrations to peptide concentrations for all assays. […]

[2] = test system: N. gonorrhoeae FA1090ΔmtrE; conditions: microdilution in FB, ~5 × 10^4 CFU, 24 hr, 37°C, 5% CO2
Protocol: as §7, §8, §9, §10, §11, §12, §13, §14, §15, §16, §17

N. gonorrhoeae WHO P = conditions: microdilution in FB, ~5 × 10^4 CFU, 24 hr, 37°C, 5% CO2
Protocol: as §7, §8, §9, §10, §11, §12, §13, §14, §15, §16, §17

N. gonorrhoeae MS11 = conditions: microdilution in FB, ~5 × 10^4 CFU, 24 hr, 37°C, 5% CO2
Protocol: as §7, §8, §9, §10, §11, §12, §13, §14, §15, §16, §17

N. gonorrhoeae WHO N = conditions: microdilution in FB, ~5 × 10^4 CFU, 24 hr, 37°C, 5% CO2
Protocol: as §7, §8, §9, §10, §11, §12, §13, §14, §15, §16, §17

N. gonorrhoeae WHO O = conditions: microdilution in FB, ~5 × 10^4 CFU, 24 hr, 37°C, 5% CO2
Protocol: as §7, §8, §9, §10, §11, §12, §13, §14, §15, §16, §17

N. gonorrhoeae WHO K = conditions: microdilution in FB, ~5 × 10^4 CFU, 24 hr, 37°C, 5% CO2
Protocol: as §7, §8, §9, §10, §11, §12, §13, §14, §15, §16, §17

N. gonorrhoeae MS11ΔmtrE = conditions: microdilution in FB, ~5 × 10^4 CFU, 24 hr, 37°C, 5% CO2
Protocol: as §7, §8, §9, §10, §11, §12, §13, §14, §15, §16, §17

[3] = test system: N. gonorrhoeae G97687 (MDR isolate); conditions: G97687, MDR isolate resistant to ESCs and azithromycin; microdilution in FB, 24 hr, 37°C, 5% CO2
Protocol: as §10, §11, §12, §13, §14, §15, §16, §17

Compound: CCCCCCCC(=O)N[C@@H](C(=O)N[C@H](CCN)C(=O)NCC(=O)N[C@H](CO)C(=O)N[C@H](Cc1c[nH]c2ccccc12)C(=O)N[C@@H](CO)C(=O)N[C@@H](CCN)C(=O)N[C@H](CCN)C(=O)N[C@@H](Cc1ccccc1)C(=O)N[C@@H](CCC(=O)O)C(=O)N[C@H](C(=O)N[C@@H](C(=O)N[C@@H](C)C(=O)NCCOCCOCC(=O)N[C@@H](CC(C)C)C(=O)N1CCC[C@H]1C(=O)N[C@@H](CCCNC(=N)N)C(=O)N1CCC[C@H]1C(=O)N1CCC[C@H]1C(=O)O)[C@@H](C)CC)C(C)C)C(C)C [Oct-TriA1-c] (Octanoyl-[dV][dDab]G[dS][dW]S[Dab][dDab]FEV[d(aIle)]A[AEEA]LPRPP-OH)
- time to no survival [1]: 180 min
- time to undetectable survival (N. gonorrhoeae FA1090): 60 min
- MIC (N. gonorrhoeae WHO G): 3.13 µg/mL (≈ 1.41 µM)
- MIC [2]: 0.78 µg/mL (≈ 0.35 µM)
- MIC (N. gonorrhoeae WHO P): 3.13 µg/mL (≈ 1.41 µM)
- MIC (N. gonorrhoeae MS11): 3.13 µg/mL (≈ 1.41 µM)
- MIC (N. gonorrhoeae WHO N): 3.13 µg/mL (≈ 1.41 µM)
- MIC (N. gonorrhoeae WHO O): 3.13 µg/mL (≈ 1.41 µM)
- MIC (N. gonorrhoeae WHO K): 3.13 µg/mL (≈ 1.41 µM)
- MIC (N. gonorrhoeae MS11ΔmtrE): 1.56 µg/mL (≈ 0.701 µM)
- MIC [3]: 1.56 µg/mL (≈ 0.701 µM)
